Measurements from US20100227918A1, “STREPTOMYCES-DERIVED ANTIMICROBIAL COMPOUND AND METHOD OF USING SAME AGAINST ANTIBIOTIC-RESISTANT BACTERIA” (Taro Pharmaceuticals North America, Inc., priority 2006, published 2010).

Experiments:
Candida albicans = assay: antimicrobial paper disc assay (zone of inhibition); type: cell-based; settings: known antibiotic controls, zone diameters of the classes (L1)
Protocol: (§1) The antimicrobial assay was performed as described in USP (See, Molecular Cloning, A Laboratory Manual). In brief, tested microorganism strains were grown in optimal culture media for growth at the optimal growth temperature for about 16 hours with shaking. Tested plates were prepared as follows. First, base agar layer-media were prepared as per USP. The media were then autoclaved, and cooled to 48° C. Once cooled to 48° C., 20 mL of the cooled media was poured onto a sterile polystyrene petri dish. This base agar layer was further allowed to solidify for 30 minutes (agar was added as a solidifying agent). Second, seed agar layers were prepared as per USP. The media were then autoclaved, and cooled to 48° C. Once cooled to 48° C., 1 mL of tested microorganism strain (already grown for 16 hours as described in the first step above) was added to the seed agar media. The seed agar media was gently swirled to mix. Five (5) mL of the seed agar media was pipetted on top of the base agar layer. Care was taken to avoid air bubbles. This seed agar media was allowed to cool for about 15 minutes at room temperature. Plates were stored at 4° C. until needed.
(§2) Ten (10) μl of each of the concentrated supernatants (described above) were pipetted onto a sterile filter paper disc. The sterile filter paper discs were dried in air for approximately 5 minutes. The sterile filter paper discs were carefully applied onto the surface of the plates (prepared as described above). Plates holding sterile filter discs were incubated either at 37° C. (for Micrococcus luteus, E. coli, and Pseudomonas aeriginosa) or at 30° C. (for Candida albicans) for a timer period of 24 hours. Negative controls included liquid culture media. Positive controls included known antimicrobial compounds such as vancomycin (against gram-positive bacteria), tetracycline (against gram-positive/gram-negative bacteria), and amphotericin B (against yeast/fungi).
(§3) Antimicrobial Assays: 10 μl of the 10-fold concentrated supernatants from each of the six (6) isolated colony was assayed for their antimicrobial activity against the twelve (12) microorganisms as listed above. The antimicrobial assay used in the tertiary screening was similar to that used in the secondary screening. In brief, tested microorganism strains were grown in optimal culture media for growth at the optimal growth temperature for about 16 hours with shaking. Tested plates were prepared as follows. First, base agar layer-media were prepared as per USP. The media were then autoclaved, and cooled to 48° C. Once cooled to 48° C., 20 mL of the cooled media was poured onto a sterile polystyrene petri dish. This base agar layer was further allowed to solidify for 30 minutes (agar was added as a solidifying agent). Second, seed agar layers were prepared as per USP. The media were then autoclaved, and cooled to 48° C. Once cooled to 48° C., 1 mL of tested microorganism strain (already grown for 16 hours as described in the first step above) was added to the seed agar media. The seed agar media was gently swirled to mix. Five (5) mL of the seed agar media was pipetted on top of the base agar layer. Care was taken to avoid air bubbles. This seed agar media was allowed to cool for about 15 minutes at room temperature. Plates were stored at 4° C. until needed.
(§4) Ten (10) μl of each of the concentrated supernatants were pipetted onto a sterile filter paper disc. The sterile filter paper discs were dried in air for approximately 5 minutes. The sterile filter paper discs were carefully applied onto the surface of the plates. Plates holding sterile filter discs were incubated either at 37° C. (for Staphylococcus aureus, MRSA, VRSA, Enterococcus faecilis, VRE, Micrococcus luteus, E. coli, Serratia marcesens and Pseudomonas aeriginosa) or at 30° C. (for Candida albicans) for a time period of 24 hours. Negative controls included liquid culture media.

[1] = tested on: Vancomycin-Resistant Enterococcus faecilis; assay: as above; type: cell-based; settings: HPLC-purified material (>99% purity) diluted to 0.1 μg/mL, zone diameters of the classes (L1)
Protocol: as §3
as §4, with “media. Positive controls included known antimicrobial compounds such as vancomycin (against gram-positive bacteria), tetracycline (against gram-positive/gram-negative bacteria), and amphotericin B (against yeast/fungi).” for “media.”
(§5) In general, a zone of inhibition visualized as having a diameter of about 7-10 mm is classified as “+”; a diameter of about 11-14 mm is “++”; a diameter of about 15-18 mm is “+++”; a diameter of about 19-22 mm is “++++”, and a diameter of greater than 23 mm is classified as “+++++”.
(§6) The HPLC-purified material was diluted with sterile distilled water to a concentration of 0.1 μg/mL. The diluted HPLC-purified material was assayed for antimicrobial activity using the antimicrobial assay as described above. The diluted HPLC-purified material was assayed for its antimicrobial activity against ten (10) microorganisms; namely, 1) Staphylococcus aureus; 2) methicillin-resistant Staphylococcus aureus; 3) vancomycin-resistant Staphylococcus aureus; 4) Enterococcus faecilis; 5) vancomycin-resistant Enterococcus faecilis; 6) Mycobacterium smegmatis; 7) E. coli; 8) Pseudomonas aeriginosa; 9) Serratia marcesens; and 10) Candida albicans.

[2] = tested on: Vancomycin-Resistant Staphylococcus aureus; assay: as above; type: cell-based; settings: HPLC-purified material (>99% purity) diluted to 0.1 μg/mL, zone diameters of the classes (L1)
Protocol: as §3
as §4, with “media. Positive controls included known antimicrobial compounds such as vancomycin (against gram-positive bacteria), tetracycline (against gram-positive/gram-negative bacteria), and amphotericin B (against yeast/fungi).” for “media.”
as §5, §6

Serratia marcesens = assay: as above; type: cell-based; settings: known antibiotic controls, zone diameters of the classes (L1)
Protocol: as §3
as §4, with “media. Positive controls included known antimicrobial compounds such as vancomycin (against gram-positive bacteria), tetracycline (against gram-positive/gram-negative bacteria), and amphotericin B (against yeast/fungi).” for “media.”
as §5, §6

Enterococcus faecilis = assay: as above; type: cell-based; settings: HPLC-purified material (>99% purity) diluted to 0.1 μg/mL, known antibiotic controls, zone diameters of the classes (L1)
Protocol: as §3
as §4, with “media. Positive controls included known antimicrobial compounds such as vancomycin (against gram-positive bacteria), tetracycline (against gram-positive/gram-negative bacteria), and amphotericin B (against yeast/fungi).” for “media.”
as §5, §6

Mycobacterium smegmatis = assay: as above; type: cell-based; settings: HPLC-purified material (>99% purity) diluted to 0.1 μg/mL, known antibiotic controls, zone diameters of the classes (L1)
Protocol: as §3
as §4, with “media. Positive controls included known antimicrobial compounds such as vancomycin (against gram-positive bacteria), tetracycline (against gram-positive/gram-negative bacteria), and amphotericin B (against yeast/fungi).” for “media.”
as §5, §6

Mycobacteria smegmatis = settings: Journal of Antibiotics 29(7), 756-8; cited from earlier work
E. coli = assay: antimicrobial paper disc assay (zone of inhibition); type: cell-based; settings: known antibiotic controls, zone diameters of the classes (L1)
Protocol: as §1, §2, §3, §4

Pseudomonas aeriginosa = assay: as above; type: cell-based; settings: known antibiotic controls, zone diameters of the classes (L1)
Protocol: as §1, §2, §3, §4

[3] = tested on: Methicillin-Resistant Staphylococcus aureus; assay: as above; type: cell-based; settings: HPLC-purified material (>99% purity) diluted to 0.1 μg/mL, known antibiotic controls, zone diameters of the classes (L1)
Protocol: (§7) Ten (10) μl of each of the concentrated supernatants were pipetted onto a sterile filter paper disc. The sterile filter paper discs were dried in air for approximately 5 minutes. The sterile filter paper discs were carefully applied onto the surface of the plates. Plates holding sterile filter discs were incubated either at 37° C. […]

Staphylococcus aureus = assay: as above; type: cell-based; settings: HPLC-purified material (>99% purity) diluted to 0.1 μg/mL, known antibiotic controls, zone diameters of the classes (L1)
Protocol: as §7

[4] = tested on: methicillin or vancomycin resistant gram-positive bacteria; settings: prior art; cited from earlier work
[5] = tested on: some gram-positive bacteria (such as Staphylococcus and Streptococcus); settings: prior art, U.S. Pat. No. 3,966,913 and Japanese patents; cited from earlier work
[6] = tested on: penicillin-resistant Staphylococcus; settings: prior art; cited from earlier work
[7] = HPLC-purified material (>99% purity) diluted to 0.1 μg/mL, paper disc assay
[8] = tertiary screening, 10 μl of 10-fold concentrated supernatant on paper disc, 37° C., 24 hours

C[C@@H]1[C@H](O)[C@@H](C)/C=C/C=C/C=C/C=C/C=C/C=C/C=C/[C@H](O[C@@H]2O[C@H](C)[C@@H](O)[C@H](N)[C@@H]2O)C[C@@H]2O[C@](O)(C[C@@H](O)C[C@@H](O)[C@H](O)CC[C@@H](O)C[C@@H](O)CC(=O)O[C@H]1C)C[C@H](O)[C@H]2C(=O)O [amphotericin B]
Antimicrobial Activity (zone of inhibition), Candida albicans (Candida albicans; [7]): amphotericin B (+++++)
Antimicrobial Activity (zone of inhibition), Candida albicans (Candida albicans; tertiary screening, 10 μl of 10-fold concentrated supernatant on paper disc, 30° C., 24 hours): amphotericin B (+++++)

CC1OC2CC(=O)OC2C2=C1C(=O)c1c(ccc(C3CC(N(C)C)C(O)C(C)O3)c1O)C2=O [Purified Lactoquinomycin, 2H-Furo[3,2-b]naphtho[2,3-d]pyran-2,6,11-trione,3,3a,5,11b-tetrahydro-7-hydroxy-5-methyl-8-[2,3,6-trideoxy-3-(dimethylamino)-β-D-arabino-hexopyranosyl]-,(3aR,5R,11bR)]
Antimicrobial Activity (zone of inhibition), Vancomycin-Resistant Enterococcus faecilis [1]: +++
Antimicrobial Activity (zone of inhibition), Vancomycin-Resistant Staphylococcus aureus [2]: +++++
Antimicrobial Activity (zone of inhibition), Serratia marcesens (Serratia marcesens; [7]): −
Antimicrobial Activity (zone of inhibition), Enterococcus faecilis (Enterococcus faecilis): +++
Antimicrobial Activity (zone of inhibition), Mycobacterium smegmatis (Mycobacterium smegmatis): +++++
antimicrobial activity against mycobacteria (i.e. Mycobacteria smegmatis) (Mycobacteria smegmatis): no antimicrobial activity
Antimicrobial Activity (zone of inhibition), Candida albicans (Candida albicans; [7]): −
Antimicrobial Activity (zone of inhibition), E. coli (E. coli; [7]): −
Antimicrobial Activity (zone of inhibition), Pseudomonas aeriginosa (Pseudomonas aeriginosa; [7]): −
Antimicrobial Activity (zone of inhibition), Methicillin-Resistant Staphylococcus aureus [3]: +++++
Antimicrobial Activity (zone of inhibition), Staphylococcus aureus (Staphylococcus aureus): +++++

CN(C)[C@@H]1C(O)=C(C(N)=O)C(=O)[C@@]2(O)C(O)=C3C(=O)c4c(O)cccc4[C@@](C)(O)[C@H]3C[C@@H]12 [tetracycline]
Antimicrobial Activity (zone of inhibition), E. coli (E. coli; [7]): tetracycline (+++++)
Antimicrobial Activity (zone of inhibition), E. coli (E. coli; [8]): tetracycline (+++++)

CC1OC2CC(=O)OC2C2=C1C(=O)c1c(ccc(C3CC(N(C)C)C(O)C(C)O3)c1O)C2=O (stereo not shown) [Lactoquinomycin A]
antimicrobial activity against methicillin or vancomycin resistant gram-positive bacteria [4]: no antimicrobial activity
antimicrobial activity against some gram-positive bacteria (such as Staphylococcus and Streptococcus) [5]: exert an antimicrobial activity
antimicrobial activity against certain penicillin-resistant Staphylococcus [6]: exert an antimicrobial activity

gentamicin
Antimicrobial Activity (zone of inhibition), Serratia marcesens (Serratia marcesens; [7]): gentamicin (+++++)
Antimicrobial Activity (zone of inhibition), Serratia marcesens (Serratia marcesens; [8]): gentamicin (+++++)
Antimicrobial Activity (zone of inhibition), Pseudomonas aeriginosa (Pseudomonas aeriginosa; [7]): gentamicin (+++++)
Antimicrobial Activity (zone of inhibition), Pseudomonas aeriginosa (Pseudomonas aeriginosa; [8]): gentamicin (+++++)
